From paper PMC11882969 (Nature Communications, 2025)
Values after ≈ are worked out from the molar mass of the structure shown. Values joined by “and” are separate entries in the source; they are usually repeats but may differ in a detail not shown here. Equal values may be shown once. Read-outs that look alike come from different tables or passages of the source.

How the values were obtained:
[1] = target: hCB2 (Homo sapiens, UniProt P34972); assay: Cerep HTRF cAMP inhibition assay, hCB2 CHO-K1; format: cell-based; set-up: host or cells: HEK293SL cells, transient PEI transfection; details: for functional response, concentration-response point (FigS7d): replicate columns;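 for all read-outs here: compounds incubated 30 min at 37 °C with hCB2 CHO-K1 cells, cAMP detected by HTRF, HBSS as basal and reference agonist as stimulated control, run in triplicate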
Procedure: (§1) The hCB1/2 CHO-K1 cells (ATCC: CCL-61) are suspended in HBSS buffer (Invitrogen) complemented with 20 mM HEPES (pH 7.4), then distributed in microplates at a density of 5.103 cells/well in the presence of either of the following: HBSS (basal control), the reference agonist (stimulated control) or the test compounds. […] Following 30 min incubation at 37 °C, the cells are lysed, and the fluorescence acceptor (D2-labeled cAMP) and fluorescence donor (anti-cAMP antibody labeled with europium cryptate) are added. […] Each measurement was done in triplicate.

[2] = target: T1, hCB1 (Homo sapiens, UniProt P21554); assay: Cerep HTRF cAMP inhibition assay, hCB1 CHO-K1; format: cell-based; set-up: host or cells: HEK293SL cells, transient PEI transfection
Procedure: as §1

[3] = target: T1, hCB1; assay: DiscoverX PathHunter β-arrestin-2 recruitment; format: cell-based;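 note: CHO-K1 cells expressing hCB1, agonist mode, compound exposure with 1% vehicle, chemiluminescence read-out of the β-arrestin-2 recruitment signal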
[4] = system: mice; assay: Formalin test; format: in vivo, mouse; details: for formalin test response per time bin (Figure5c), individual animals: 0.2 mg/kg
Procedure: Thirty min after an i.p. injection of the compounds, mice received an intraplantar injection of a 20μL solution containing 2% formalin (Acros Organics) and we recorded the time mice spent licking/biting/guarding (nocifensive behaviors) the injected hindpaw over the next 60 min.

[5] = mouse plasma, 1.0 µM
Procedure: (§2) Compounds were added to one chamber and the same volume of PBS buffer pH 7.4 to the other chamber. A standard solution was created by mixing an aliquot of spiked plasma with blank buffer without dialysis. […] The stability samples were immediately diluted with acetonitrile and stored at 4 °C until LC-MS/MS analysis. All samples were diluted 5-fold with 90% acetonitrile with internal standard with subsequent plasma proteins sedimentation by centrifuging at 5,796 g for 5 min. Supernatants were analyzed using HPLC system coupled with tandem mass spectrometer. The percentage of plasma protein-bound compound, recovery and stability were calculated using following equations:7 ProteinBinding=1−arearatioinbuffer/arearatioinplasma×100 8 Recovery=arearatioinbuffer+arearatioinplasma/arearatioinstabilitysample×100 9 Stability=arearatioinrecoverysample/arearatioinstabilitysample×100

[6] = relative to 100 at 0 min
Procedure: (§3) Microsomal incubations were carried out in 96-well plates in 5 aliquots of 30 μL each (one for each time point). […] In the control reactions, the NADPH-cofactor system was substituted with phosphate buffer. […] Five time points over 40 min were analyzed. The reactions were stopped by adding 5 volumes of acetonitrile with internal standard to incubation aliquots, followed by protein sedimentation by centrifuging at 4869 g for 5 min. Each reaction was performed in duplicates. Supernatants were analyzed using the HPLC system coupled with a tandem mass spectrometer. The elimination constant (kel), half-life (T1/2), and intrinsic clearance (Clint) were determined in a plot of ln(AUC) versus time, using linear regression analysis.

[7] = physchem; details: phosphate-buffered saline, 25 °C, pH 7.4, aqueous buffer, kinetic from dmso stock
[8] = system: mice; assay: Body temperature by telemetric probe; format: in vivo, mouse; details: 0.2 mg/kg; for Body temperature (pre-injection = 100): individual animals, sheet Figure7a
Procedure: Body temperature (BT) was measured using a telemetric probe device (HD-X10; Data Science International). Briefly, under anesthesia, the probe device was placed in the mouse abdomen and a subcutaneous tunnel was created from the neck to the abdominal skin, through which a catheter (connected to the probe) was pulled and then inserted into the left carotid artery. Three weeks later, the implanted mice were singly housed in a cage that was placed on top of the DSI receiver (for probe signal detection). We monitored BT continuously over 2 h, in the following manner: 30 min (for baseline), 30 min after injection of the vehicle and then for 1 h after injection of the compound. Data were acquired using the Ponemah Telemetry acquisition software (DSI) and percent changes were presented relative to each mouse’s baseline.

[9] = relative to 100 at 0 min; remark: listed apart in the source
Procedure: The reactions were stopped by adding 240 μL 90% acetonitrile containing internal standard with subsequent plasma proteins sedimentation by centrifuging at 5796 g for 5 min. Supernatants were analyzed by the HPLC system coupled with a tandem mass spectrometer. The percentage of the test compounds remaining after incubation in plasma and their half-lives (T1/2) were calculated.

[10] = system: mice; assay: Conditioned place preference; format: in vivo, mouse
Procedure: Briefly, mice were first habituated to the test apparatus, twice, and their preference for each chamber recorded for 30 min (Pretest). Two conditioning days followed in which mice received the vehicle control or the compound, and 30 min later restricted for 30 min in the preferred or non-preferred chamber, respectively. On day 5 (Test day), mice were allowed to roam freely between the 3 chambers of the apparatus and their preference for each chamber recorded for 30 min. To calculate the CPP score, we subtracted the time spent in each chamber of the box on the Pretest day from that of the Test day (CPP score = Test - Pretest).

[11] = system: mice; assay: Open field test; format: in vivo, mouse
Procedure: Thirty min after i.p. injection, mice were placed in the center of a round open-field (2 feet diameter) and their exploratory behavior recorded over the next 15 min. Distance traveled was used to represent open field behavior.

[12] = in vitro; details: mouse, pH 7.4
Procedure: as §2

[13] = target: panel of 320 non-olfactory GPCRs (Homo sapiens, UniProt Q8TDS5); format: cell-based
[14] = in vitro; details: mouse, microsomes, pH 7.4
Procedure: as §3

[15] = system: mice; assay: Hargreaves radiant heat test; format: in vivo, mouse; details: for Dose response, individual animals (FigS11a): test not printed on the sheet
[16] = system: mice; assay: CFA inflammatory pain model; format: in vivo, mouse
Procedure: The CFA model of chronic inflammation was induced as described previously. Briefly, CFA (Sigma) was diluted 1:1 with saline and vortexed for 30 min. When fully suspended, we injected 20 μL of CFA into one hindpaw. Heat thresholds were measured before the injection (baseline) and 3 days after the injection using the Hargreaves test.

Chain of panel of 320 non-olfactory GPCRs (Q8TDS5 whole entry): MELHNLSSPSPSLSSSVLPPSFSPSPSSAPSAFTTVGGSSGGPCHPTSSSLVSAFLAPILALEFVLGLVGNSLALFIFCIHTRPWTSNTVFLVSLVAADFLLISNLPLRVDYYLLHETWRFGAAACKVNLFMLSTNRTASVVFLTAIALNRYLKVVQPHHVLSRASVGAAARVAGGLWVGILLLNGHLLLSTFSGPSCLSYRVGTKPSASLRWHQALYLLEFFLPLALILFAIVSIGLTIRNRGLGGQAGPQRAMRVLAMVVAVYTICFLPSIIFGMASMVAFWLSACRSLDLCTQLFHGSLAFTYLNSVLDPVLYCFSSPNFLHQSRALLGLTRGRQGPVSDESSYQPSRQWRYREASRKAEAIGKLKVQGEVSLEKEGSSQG
Chain of hCB2 (P34972 whole entry): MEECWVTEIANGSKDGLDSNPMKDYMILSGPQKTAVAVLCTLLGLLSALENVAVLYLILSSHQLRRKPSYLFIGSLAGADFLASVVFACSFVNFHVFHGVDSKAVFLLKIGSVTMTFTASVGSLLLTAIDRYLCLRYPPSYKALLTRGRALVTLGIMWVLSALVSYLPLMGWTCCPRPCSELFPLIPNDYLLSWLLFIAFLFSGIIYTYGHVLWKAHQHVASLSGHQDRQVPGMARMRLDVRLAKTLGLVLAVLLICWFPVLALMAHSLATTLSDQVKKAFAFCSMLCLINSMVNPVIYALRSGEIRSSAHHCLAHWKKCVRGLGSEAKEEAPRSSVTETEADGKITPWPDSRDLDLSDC
T1 sequence (P21554 whole entry): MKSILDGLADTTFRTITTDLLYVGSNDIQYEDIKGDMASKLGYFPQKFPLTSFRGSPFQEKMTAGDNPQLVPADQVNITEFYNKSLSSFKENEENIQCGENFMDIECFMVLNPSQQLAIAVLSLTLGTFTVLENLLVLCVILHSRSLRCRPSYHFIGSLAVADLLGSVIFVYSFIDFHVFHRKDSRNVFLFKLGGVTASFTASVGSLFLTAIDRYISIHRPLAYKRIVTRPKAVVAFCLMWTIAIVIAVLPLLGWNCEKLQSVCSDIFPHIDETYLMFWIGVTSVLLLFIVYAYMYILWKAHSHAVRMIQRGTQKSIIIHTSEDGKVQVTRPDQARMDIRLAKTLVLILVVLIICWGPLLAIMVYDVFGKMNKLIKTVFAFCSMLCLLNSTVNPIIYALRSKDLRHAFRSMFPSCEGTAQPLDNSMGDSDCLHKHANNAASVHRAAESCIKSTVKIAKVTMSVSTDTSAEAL

## COC(=O)C(C)(NC(=O)c1cc(C)n(-c2cccc(C(F)(F)F)c2)n1)c1cccs1 (stereo not shown) [‘4042]
[1]; CHO-K1, hCB2
  Emax: 72%
[1]; Concentration [M] 1e-12
  functional response, concentration-response point (FigS7d): 9.2 and 15.9 and 20.5
[1]; Concentration [M] 1e-11
  functional response, concentration-response point (FigS7d): 54.5 and 33.7 and 39.7
[1]; Concentration [M] 1e-10
  functional response, concentration-response point (FigS7d): 72.4 and 68.7 and 74.5
[1]; Concentration [M] 1e-9
  functional response, concentration-response point (FigS7d): 87.6 and 76.3 and 78.1
[1]; Concentration [M] 1e-8
  functional response, concentration-response point (FigS7d): 74.4 and 84.9 and 81.3
[1]; Concentration [M] 1e-7
  functional response, concentration-response point (FigS7d): 79.5 and 79.9 and 79.2
[1]; Concentration [M] 1e-6
  functional response, concentration-response point (FigS7d): 80.1 and 76.3 and 83.8
[1]; hCB2
  Cerep cAMP pEC50: 10.95 [10.7 – 11.6]
  EC50: 0.011 nM
[2]; CHO-K1
  Emax: 96%
[2]; hCB1
  Cerep cAMP pEC50: 11.1
[3]
  DiscoverX ß-arrestin recruitment pEC50: 8.7 [8.3 – 9.6]
[3]; log[M] = -5, individual replicates
  response at log[M] -5 (FigS4f): 61.1792 and 63.739
[3]; log[M] = -5.47712, individual replicates
  response at log[M] -5.47712 (FigS4f): 59.4535 and 60.8053
[3]; log[M] = -5.95424, individual replicates
  response at log[M] -5.95424 (FigS4f): 62.531 and 63.2501
[3]; log[M] = -6.43136, individual replicates
  response at log[M] -6.43136 (FigS4f): 63.3939 and 54.9092
[3]; log[M] = -6.90849, individual replicates
  response at log[M] -6.90849 (FigS4f): 60.9779 and 60
[3]; log[M] = -7.38561, individual replicates
  response at log[M] -7.38561 (FigS4f): 55.1393 and 55.8296
[3]; log[M] = -7.86273, individual replicates
  response at log[M] -7.86273 (FigS4f): 45.8781 and 43.2321
[3]; log[M] = -8.33985, individual replicates
  response at log[M] -8.33985 (FigS4f): 34.3448 and 36.6457
[3]; log[M] = -8.81697, individual replicates
  response at log[M] -8.81697 (FigS4f): 21.5459 and 25.2274
[3]; log[M] = -9.29409, individual replicates
  response at log[M] -9.29409 (FigS4f): 9.61 and 9.437
[3]; read-out: DiscoverX ß-arrestin recruitment EC50
  EC50: 2.3 nM
[3]; read-out: DiscoverX ß-arrestin recruitment Emax
  Emax: 71%

## COC(=O)[C@@](C)(NC(=O)c1cc(C)n(-c2cccc(C(F)(F)F)c2)n1)c1cccs1 [‘1350]
[4]; 0.2 mg/kg i.p., 60 min
  effect on formalin nocifensive behaviors: profoundly decreased the duration of both phase 1 and phase 2 nocifensive behaviors
[4]; Time 0 min
  formalin test response per time bin (Figure5c), individual animals: 0
[4]; Time 5 min
  formalin test response per time bin (Figure5c), individual animals: 47.9 and 64.7 and 87.7 and 92.8 and 88.1
[4]; Time 10 min
  formalin test response per time bin (Figure5c), individual animals: 0 (4×) and 6.3
[4]; Time 15 min
  formalin test response per time bin (Figure5c), individual animals: 0 (3×) and 1.5 and 2.3
[4]; Time 20 min
  formalin test response per time bin (Figure5c), individual animals: 2.9 and 0 (3×) and 3.6
[4]; Time 25 min
  formalin test response per time bin (Figure5c), individual animals: 1.9 and 13.6 and 0 (2×) and 21.9
[4]; Time 30 min
  formalin test response per time bin (Figure5c), individual animals: 0 (2×) and 85 and 92.7 and 5.3
[4]; Time 35 min
  formalin test response per time bin (Figure5c), individual animals: 1.8 and 59 and 0 (2×) and 91.5
[4]; Time 40 min
  formalin test response per time bin (Figure5c), individual animals: 2.3 and 173.3 and 5.2 and 106.7 and 40.7
[4]; Time 45 min
  formalin test response per time bin (Figure5c), individual animals: 3.9 and 181.8 and 5.2 and 10 and 11.7
[4]; Time 50 min
  formalin test response per time bin (Figure5c), individual animals: 8.3 and 48.5 and 11.2 and 3.8 and 50.2
[4]; Time 55 min
  formalin test response per time bin (Figure5c), individual animals: 40.3 and 35.4 and 0 (3×)
[4]; Time 60 min
  formalin test response per time bin (Figure5c), individual animals: 2.4 and 30.9 and 0 (3×)
[5]
  Mean % of bound compound: 94%
[5]; 5 h
  Stability: 11%
[6]; Time 0 min
  Stability time course, Mean (FS10f): 100
[6]; Time 7 min
  Stability time course, Mean (FS10f): 13.0354
[6]; Time 15 min
  Stability time course, Mean (FS10f): 0.461
[6]; Time 25 min
  Stability time course, Mean (FS10f): 0.1608
[6]; Time 40 min
  Stability time course, Mean (FS10f): 0.1274
[7]
  solubility at 2 h: 23 µM (≈ 10.1 µg/mL)
[8]; vs baseline and vehicle
  hypothermia: increased hypothermia compared to CP-55,940
[8]; time 10
  Body temperature (pre-injection = 100): 97.5 and 99.4 (2×)
[8]; time 20
  Body temperature (pre-injection = 100): 90.5 and 93.9 and 97
[8]; time 30
  Body temperature (pre-injection = 100): 83.8 and 88.4 and 92.4
[8]; time 40
  Body temperature (pre-injection = 100): 79.1 and 83.4 and 87.4
[8]; time 50
  Body temperature (pre-injection = 100): 78.7 and 80.2 and 84.2
[8]; time 60
  Body temperature (pre-injection = 100): 79.9 and 78.4 and 83.6
[8]; time 70
  Body temperature (pre-injection = 100): 81.4 and 78.1 and 83.5
[8]; time 80
  Body temperature (pre-injection = 100): 82.4 and 78.5 and 83.9
[8]; time 90
  Body temperature (pre-injection = 100): 82.1 and 79.5 and 83.5
[9]; Time 0 min
  Stability time course, Mean (FigS10e): 100
[9]; Time 20 min
  Stability time course, Mean (FigS10e): 84.0951
[9]; Time 40 min
  Stability time course, Mean (FigS10e): 66.362
[9]; Time 60 min
  Stability time course, Mean (FigS10e): 47.7148
[9]; Time 120 min
  Stability time course, Mean (FigS10e): 13.638
[10]; 0.2 mg/kg, test not printed on the sheet
  Individual animal scores (FigS11e): 289 and 48 and 256 and -101 and 11 and -145 and -65 and -179
[10]; drug-paired vs vehicle-paired chamber
  conditioned place preference: does not induce preference
[11]; Dose 0.2 mg/kg
  open field locomotion (Figure6a), individual animals: 12688.4 and 110206 and 39857.9 and 128163 and 83978.8
[11]; Dose 0.5 mg/kg
  open field locomotion (Figure6a), individual animals: 61622.6 and 27571.5 and 19916.8 and 94738.4 and 50932.2
[11]; i.p.
  dose showing locomotor deficits, open field: 0.2 mg/kg
[12]
  recovery at 5 h, 1 μM: 107%
[13]
  Fold of Basal RLU: 0.4 and 0.8 and 0.5
[14]
  remaining at 40 min, 2 µM: 100%
[15]; Dose 0.05 mg/kg
  Dose response, individual animals (FigS11a): 70.2102 and 59.9464 and 116.769 and 106.654 and 53.8477
[15]; Dose 0.1 mg/kg
  Dose response, individual animals (FigS11a): 178.501 and 115.43 and 147.263 and 156.486
[15]; Dose 0.2 mg/kg
  Dose response, individual animals (FigS11a): 166.452 and 178.501
[15]; i.p., 30 min after injection
  lowest dose with significantly increased latency, Hargreaves: 0.1 mg/kg
[16]; 0.2 mg/kg i.p.
  effect on paw withdrawal latency after CFA: increasing paw withdrawal latencies to well-above pre-CFA baseline thresholds
[16]; 0.2 mg/kg, CFA-treated mice
  CFA inflammatory pain response normalised to baseline (Figure5a), individual animals: 134.669 and 178.501 and 55.3352 and 183.627 and 40.7039 and 122.724 and 119
